Among the data in US20230072683A1, “PYRIDO-PYRIMIDIN DERIVATIVES AND PHARMACEUTICAL COMPOSITION, FOR USE IN PREVENTING OR TREATING PI3 KINASE RELATED DISEASES, COMPRISING SAME AS ACTIVE INGREDIENT” (BORYUNG PHARMACEUTICAL CO., LTD, priority 2019, published 2023) are inhibition values, retold here.

In assay [1] the target is PI3K-δ (PI3K(p1108/p857) (h)) (Homo sapiens, UniProt O00329). The experiment in a line: Evaluation of inhibitory activity against PI3K-δ (HTRF kinase assay). As to conditions: for inhibition at 0.01 µM: compound concentration 0.01 μM, read-out: EXP_VALUE(% Inhibition) PI3K-δ 0.01 μM; for inhibition at 0.1 µM: compound concentration 0.1 μM, read-out: EXP_VALUE(% Inhibition) PI3K-δ 0.1 μM. The format is biochemical. The essentials: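 HTRF read-out (665/620 nm ratio ×10000) used Eu-labelled anti-GST, GST-tagged GRP1 PH domain and streptavidin-allophycocyanin after EDTA/PIP3 stop.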
PI3K-δ (PI3K(p1108/p857) (h)), sequence (O00329 whole entry, the tested form may be a part): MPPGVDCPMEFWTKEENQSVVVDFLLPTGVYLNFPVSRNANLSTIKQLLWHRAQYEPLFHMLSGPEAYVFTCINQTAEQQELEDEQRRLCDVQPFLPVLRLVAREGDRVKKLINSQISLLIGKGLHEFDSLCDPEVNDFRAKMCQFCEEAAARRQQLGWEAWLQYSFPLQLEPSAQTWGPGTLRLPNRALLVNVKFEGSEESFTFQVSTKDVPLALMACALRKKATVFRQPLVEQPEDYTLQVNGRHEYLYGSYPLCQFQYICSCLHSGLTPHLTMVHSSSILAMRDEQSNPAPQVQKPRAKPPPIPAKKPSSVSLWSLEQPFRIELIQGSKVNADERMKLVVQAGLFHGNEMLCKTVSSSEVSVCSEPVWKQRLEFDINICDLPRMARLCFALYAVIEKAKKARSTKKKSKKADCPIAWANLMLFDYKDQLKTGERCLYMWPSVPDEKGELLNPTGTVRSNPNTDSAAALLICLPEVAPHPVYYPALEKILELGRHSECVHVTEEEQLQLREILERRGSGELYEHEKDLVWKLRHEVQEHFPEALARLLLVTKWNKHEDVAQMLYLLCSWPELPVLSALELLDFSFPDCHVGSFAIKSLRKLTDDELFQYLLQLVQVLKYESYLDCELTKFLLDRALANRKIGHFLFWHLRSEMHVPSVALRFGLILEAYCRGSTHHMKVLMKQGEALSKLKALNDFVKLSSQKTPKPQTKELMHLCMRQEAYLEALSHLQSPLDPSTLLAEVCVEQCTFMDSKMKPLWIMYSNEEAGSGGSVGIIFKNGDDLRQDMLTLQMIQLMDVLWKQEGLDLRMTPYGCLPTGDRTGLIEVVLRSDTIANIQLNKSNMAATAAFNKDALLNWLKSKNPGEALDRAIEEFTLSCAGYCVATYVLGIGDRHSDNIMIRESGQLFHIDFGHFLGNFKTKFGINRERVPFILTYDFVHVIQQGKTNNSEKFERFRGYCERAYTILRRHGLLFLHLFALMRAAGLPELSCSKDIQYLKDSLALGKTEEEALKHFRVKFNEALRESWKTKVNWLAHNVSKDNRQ
PI3K-δ (PI3K(p1108/p857) (h)), sequence (P27986 whole entry partner, the tested form may be a part): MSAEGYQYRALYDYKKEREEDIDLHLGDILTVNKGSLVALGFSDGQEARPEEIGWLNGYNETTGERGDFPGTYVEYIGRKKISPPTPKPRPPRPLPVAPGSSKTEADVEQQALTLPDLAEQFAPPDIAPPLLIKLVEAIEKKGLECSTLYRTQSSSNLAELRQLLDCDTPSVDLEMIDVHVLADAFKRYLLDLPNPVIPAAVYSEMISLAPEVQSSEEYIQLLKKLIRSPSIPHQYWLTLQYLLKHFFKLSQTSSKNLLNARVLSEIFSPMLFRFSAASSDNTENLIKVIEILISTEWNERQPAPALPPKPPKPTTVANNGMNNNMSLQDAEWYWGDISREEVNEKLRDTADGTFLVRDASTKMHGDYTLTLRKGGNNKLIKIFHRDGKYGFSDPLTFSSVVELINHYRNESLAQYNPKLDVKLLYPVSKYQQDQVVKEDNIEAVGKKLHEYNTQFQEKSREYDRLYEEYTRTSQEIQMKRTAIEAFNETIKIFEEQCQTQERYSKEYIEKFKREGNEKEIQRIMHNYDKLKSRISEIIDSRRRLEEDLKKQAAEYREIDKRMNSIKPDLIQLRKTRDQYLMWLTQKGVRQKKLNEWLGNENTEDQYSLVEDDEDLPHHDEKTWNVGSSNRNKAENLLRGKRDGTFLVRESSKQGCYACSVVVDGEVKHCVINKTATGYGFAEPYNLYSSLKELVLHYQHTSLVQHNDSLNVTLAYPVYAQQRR
(In TR-FRET formats the signal depends on donor and acceptor labels being close together.)

The target in a further assay is DNA-PK(h) (Homo sapiens, UniProt P78527). Kind of assay: Evaluation of inhibitory activity against DNA-PK (HTRF kinase assay, GST-cMyc-p53 substrate). As to conditions: for inhibition at 0.01 µM: compound concentration 0.01 μM, read-out: EXP_VALUE(% Inhibition) DNA-PK(h) 0.01 μM; for inhibition at 0.1 µM: compound concentration 0.1 μM, read-out: EXP_VALUE(% Inhibition) DNA-PK(h) 0.1 μM. The format is biochemical. The essentials:
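p53 Ser15 phosphorylation by human DNA-PK was measured by time-resolved FRET ratio (665/620 nm ×10000) using Eu-labelled anti-phospho-Ser15 and d2 anti-GST antibodies. Substrate GST-cMyc-p53 at 50 μM; Mg/ATP-initiated, 30 min at room temperature, EDTA stop.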

As for `C[C@H](Nc1ncnc2[nH]ccc(=O)c12)c1c(Cl)c2cccc(-c3ccc(CN4CCOCC4)cc3F)c2c(=O)n1-c1ccccc1` [Example 231, (S)-4-((1-(4-chloro-8-(2-fluoro-4-(morpholinomethyl)phenyl)-1-oxo-2-phenyl-1,2-dihydroisoquinolin-3-yl)ethyl)amino)pyrido[2,3-d]pyrimidin-5(8H)-one], the inhibition at 0.01 µM in assay [1] was found to be 44%; at DNA-PK(h), 67%.

`COc1ncc(-c2cccc3c(Cl)c([C@H](C)Nc4ncnc5[nH]ccc(=O)c45)n(-c4ccccc4)c(=O)c23)cc1NS(=O)(=O)c1ccc(F)cc1F` [Example 232, (S)—N-(5-(4-chloro-1-oxo-3-(1-((5-oxo-5,8-dihydropyrido[2,3-d]pyrimidin-4-yl)amino)ethyl)-2-phenyl-1,2-dihydroisoquinolin-8-yl)-2-methoxypyridin-3-yl)-2,4-difluorobenzenesulfonamide]: the inhibition at 0.01 µM came to 23% in assay [1] and 15% on DNA-PK(h).

For `C[C@H](Nc1ncnc2[nH]ccc(=O)c12)c1c(Cl)c2cccc(-c3ccc4nsnc4c3)c2c(=O)n1-c1ccccc1` [Example 233, (S)-4-((1-(8-(benzo[c][1,2,5]thiadiazol-5-yl)-4-chloro-1-oxo-2-phenyl-1,2-dihydroisoquinolin-3-yl)ethyl)amino)pyrido[2,3-d]pyrimidin-5(8H)-one], the inhibition at 0.01 µM in assay [1] turned out to be 77%; at DNA-PK(h), 60%.

Consider `Cc1cc(-c2cccc3c(Cl)c([C@H](C)Nc4ncnc5[nH]ccc(=O)c45)n(-c4ccccc4)c(=O)c23)n[nH]1` [Example 234, (S)-4-((1-(4-chloro-8-(5-methyl-1H-pyrazol-3-yl)-1-oxo-2-phenyl-1,2-dihydroisoquinolin-3-yl)ethyl)amino)pyrido[2,3-d]pyrimidin-5(8H)-one], for which the inhibition at 0.01 µM in assay [1] amounted to 85%; on DNA-PK(h), 50%.

Take `C[C@H](Nc1ncnc2[nH]ccc(=O)c12)c1c(Cl)c2cccc(-c3cnc4nonc4c3)c2c(=O)n1-c1ccccc1` [Example 235, (S)-4-((1-(8-([1,2,5]oxadiazolo[3,4-b]pyridin-6-yl)-4-chloro-1-oxo-2-phenyl-1,2-dihydroisoquinolin-3-yl)ethyl)amino)pyrido[2,3-d]pyrimidin-5(8H)-one]: the inhibition at 0.01 µM in assay [1] came out at 80%; at DNA-PK(h), 46%.

For `C[C@H](Nc1ncnc2[nH]ccc(=O)c12)c1c(Cl)c2cccc(-c3ccc4[nH]ncc4c3)c2c(=O)n1-c1ccccc1` [Example 236, (S)-4-((1-(4-chloro-8-(1H-indazol-5-yl)-1-oxo-2-phenyl-1,2-dihydroisoquinolin-3-yl)ethyl)amino)pyrido[2,3-d]pyrimidin-5(8H)-one], the inhibition at 0.01 µM in assay [1] turned out to be 79%; on DNA-PK(h) it was 46%.

With `C[C@H](Nc1ncnc2[nH]ccc(=O)c12)c1c(Cl)c2cccc(-c3cccc4c3cnn4C)c2c(=O)n1-c1ccccc1` [Example 237, (S)-4-((1-(4-chloro-8-(1-methyl-1H-indazol-4-yl)-1-oxo-2-phenyl-1,2-dihydroisoquinolin-3-yl)ethyl)amino)pyrido[2,3-d]pyrimidin-5(8H)-one], the inhibition at 0.01 µM in assay [1] was found to be 85%; on DNA-PK(h), 29%.

As for `C[C@H](Nc1ncnc2[nH]ccc(=O)c12)c1c(Cl)c2cccc(-c3cnoc3)c2c(=O)n1-c1ccccc1` [Example 238, (S)-4-((1-(4-chloro-8-(isoxazol-4-yl)-1-oxo-2-phenyl-1,2-dihydroisoquinolin-3-yl)ethyl)amino)pyrido[2,3-d]pyrimidin-5(8H)-one], the inhibition at 0.01 µM (in assay [1]; on DNA-PK(h)) was 15% throughout.

For `C[C@H](Nc1ncnc2[nH]ccc(=O)c12)c1c(Cl)c2cccc(-c3cccc4cn[nH]c34)c2c(=O)n1-c1ccccc1` [Example 239, (S)-4-((1-(4-chloro-8-(1H-indazol-7-yl)-1-oxo-2-phenyl-1,2-dihydroisoquinolin-3-yl)ethyl)amino)pyrido[2,3-d]pyrimidin-5(8H)-one], the inhibition at 0.01 µM in assay [1] was 38%; on DNA-PK(h), 10%.

For the molecule `C[C@H](Nc1ncnc2[nH]ccc(=O)c12)c1c(Cl)c2cccc(-c3ccc4nonc4c3)c2c(=O)n1-c1ccccc1` [Example 240, (S)-4-((1-(8-(benzo[c][1,2,5]oxadiazol-5-yl)-4-chloro-1-oxo-2-phenyl-1,2-dihydroisoquinolin-3-yl)ethyl)amino)pyrido[2,3-d]pyrimidin-5(8H)-one], the values for the inhibition at 0.01 µM (in assay [1]; at DNA-PK(h)) were 61% and 22%, respectively.

On to `C[C@H](Nc1ncnc2[nH]ccc(=O)c12)c1c(Cl)c2cccc(-c3ccc4ocnc4c3)c2c(=O)n1-c1ccccc1` [Example 241, (S)-4-((1-(8-(benzo[d]oxazol-5-yl)-4-chloro-1-oxo-2-phenyl-1,2-dihydroisoquinolin-3-yl)ethyl)amino)pyrido[2,3-d]pyrimidin-5(8H)-one], for which the inhibition at 0.01 µM in assay [1] worked out at 32%; on DNA-PK(h) it was 49%.

As to `Cc1csc(-c2cccc3c(Cl)c([C@H](C)Nc4ncnc5[nH]ccc(=O)c45)n(-c4ccccc4)c(=O)c23)c1` [Example 242, (S)-4-((1-(4-chloro-8-(4-methylthiophen-2-yl)-1-oxo-2-phenyl-1,2-dihydroisoquinolin-3-yl)ethyl)amino)pyrido[2,3-d]pyrimidin-5(8H)-one], the results for the inhibition at 0.01 µM (in assay [1]; on DNA-PK(h)) were 69% and 65%, respectively.

With `Cc1ccsc1-c1cccc2c(Cl)c([C@H](C)Nc3ncnc4[nH]ccc(=O)c34)n(-c3ccccc3)c(=O)c12` [Example 243, (S)-4-((1-(4-chloro-8-(3-methylthiophen-2-yl)-1-oxo-2-phenyl-1,2-dihydroisoquinolin-3-yl)ethyl)amino)pyrido[2,3-d]pyrimidin-5(8H)-one], the inhibition at 0.01 µM stood at 45% in assay [1] and 32% at DNA-PK(h).

Take `Cc1c[nH]nc1-c1cccc2c(Cl)c([C@H](C)Nc3ncnc4[nH]ccc(=O)c34)n(-c3ccccc3)c(=O)c12` [Example 244, (S)-4-((1-(4-chloro-8-(4-methyl-1H-pyrazol-3-yl)-1-oxo-2-phenyl-1,2-dihydroisoquinolin-3-yl)ethyl)amino)pyrido[2,3-d]pyrimidin-5(8H)-one]: the inhibition at 0.01 µM came out at 65% in assay [1] and 7% at DNA-PK(h).

In the case of `C[C@H](Nc1ncnc2[nH]ccc(=O)c12)c1c(Cl)c2cccc(CN3CCOCC3)c2c(=O)n1-c1ccccc1` [Example 245, (S)-4-((1-(4-chloro-8-(morpholinomethyl)-1-oxo-2-phenyl-1,2-dihydroisoquinolin-3-yl)ethyl)amino)pyrido[2,3-d]pyrimidin-5(8H)-one], the results for the inhibition at 0.01 µM (in assay [1]; on DNA-PK(h)) were 52% and 43%, respectively.

For `CNc1ccc(-c2cccc3c(Cl)c([C@H](C)Nc4ncnc5[nH]ccc(=O)c45)n(-c4ccccc4)c(=O)c23)cn1` [Example 246, (S)-4-((1-(4-chloro-8-(6-(methylamino)pyridin-3-yl)-1-oxo-2-phenyl-1,2-dihydroisoquinolin-3-yl)ethyl)amino)pyrido[2,3-d]pyrimidin-5(8H)-one], the figures for the inhibition at 0.01 µM (in assay [1]; at DNA-PK(h)) were 85% and 79%, respectively.

Take `C[C@H](Nc1ncnc2[nH]ccc(=O)c12)c1c(Cl)c2cccc(-c3ccc(OC(F)(F)F)cc3)c2c(=O)n1-c1ccccc1` [Example 247, (S)-4-((1-(4-chloro-1-oxo-2-phenyl-8-(4-(trifluoromethoxy)phenyl)-1,2-dihydroisoquinolin-3-yl)ethyl)amino)pyrido[2,3-d]pyrimidin-5(8H)-one]: the inhibition at 0.01 µM turned out to be 75% in assay [1] and 21% on DNA-PK(h).

In the case of `Cc1ccc(-c2cccc3c(Cl)c([C@H](C)Nc4ncnc5[nH]ccc(=O)c45)n(-c4ccccc4)c(=O)c23)c(C)n1` [Example 248, (S)-4-((1-(4-chloro-8-(2,6-dimethylpyridin-3-yl)-1-oxo-2-phenyl-1,2-dihydroisoquinolin-3-yl)ethyl)amino)pyrido[2,3-d]pyrimidin-5(8H)-one], the inhibition at 0.01 µM in assay [1] turned out to be 99%; on DNA-PK(h), 66%.

`C[C@H](Nc1ncnc2[nH]ccc(=O)c12)c1c(Cl)c2cccc(N(C)C)c2c(=O)n1-c1ccccc1` [Example 249, (S)-4-((1-(4-chloro-8-(dimethylamino)-1-oxo-2-phenyl-1,2-dihydroisoquinolin-3-yl)ethyl)amino)pyrido[2,3-d]pyrimidin-5(8H)-one]: in assay [1], the inhibition at 0.01 µM is 69% and the inhibition at 0.1 µM amounted to 98%. In addition, at DNA-PK(h), the inhibition at 0.01 µM amounted to 11% and the inhibition at 0.1 µM turned out to be 69%.

`C[C@H](Nc1ncnc2[nH]ccc(=O)c12)c1c(Cl)c2cccc(N3CCN(C)CC3)c2c(=O)n1-c1ccccc1` [Example 250, (S)-4-((1-(4-chloro-8-(4-methylpiperazin-1-yl)-1-oxo-2-phenyl-1,2-dihydroisoquinolin-3-yl)ethyl)amino)pyrido[2,3-d]pyrimidin-5(8H)-one]: in assay [1], the inhibition at 0.01 µM was found to be 32% and the inhibition at 0.1 µM is 82%. Moreover, on DNA-PK(h), the inhibition at 0.01 µM is 0% and the inhibition at 0.1 µM is 57%.

Consider `C[C@H](Nc1ncnc2[nH]ccc(=O)c12)c1c(Cl)c2cccc(N3CCOCC3)c2c(=O)n1-c1ccccc1` [Example 251, (S)-4-((1-(4-chloro-8-morpholino-1-oxo-2-phenyl-1,2-dihydroisoquinolin-3-yl)ethyl)amino)pyrido[2,3-d]pyrimidin-5(8H)-one], for which, in assay [1], the inhibition at 0.01 µM was determined as 65% and the inhibition at 0.1 µM was 109%. At DNA-PK(h), the inhibition at 0.01 µM is 6% and the inhibition at 0.1 µM worked out at 60%.

One may read the inhibition as the change of the read-out against control, counted positive when it falls.
